Measurements as given in patent US9302999B2, “Substituted triazoles as herbicides” (E. I. DU PONT DE NEMOURS AND COMPANY, priority 2012, dated 2016).

Experiments:
Format in all cases: in vivo
[1] = system: deadnettle (henbit deadnettle, Lamium amplexicaule); experiment: Test C postemergence: deadnettle
In short: (§1)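 Pot-grown plants in peat/vermiculite medium sprayed postemergence at 2–18 cm height (1- to 4-leaf stage). Kept in greenhouse 13 to 15 days, then visually rated against untreated controls on a 0–100 scale (0 = no effect, 100 = complete control).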

[2] = system: bromegrass, downy (downy bromegrass, Bromus tectorum); experiment: Test C pre-/postemergence: bromegrass, downy
In short: (§2)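 Preemergence on seeds in loam/sand, postemergence on 2–18 cm (1–4-leaf) plants in peat-based medium; compounds in non-phytotoxic solvent with surfactant. After 13–15 days in greenhouse, visual rating versus controls, 0 (no effect) to 100 (complete control).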

[3] = system: goosegrass (Eleusine indica); experiment: Test C pre-/postemergence: goosegrass
In short: as §2

[4] = system: canarygrass (Phalaris minor); experiment: Test C postemergence: canarygrass
In short: as §1

[5] = system: foxtail, green (green foxtail, Setaria viridis); experiment: Test C pre-/postemergence: foxtail, green
In short: as §2

[6] = system: nightshade (eastern black nightshade, Solanum ptycanthum); experiment: Test C pre-/postemergence: nightshade; settings: Preemergence
In short: as §2

[7] = system: bermudagrass (Cynodon dactylon); experiment: Test C pre-/postemergence: bermudagrass
In short: as §2

[8] = system: common (oilseed) sunflower (Helianthus annuus); experiment: Test C pre-/postemergence: sunflower; settings: Preemergence
In short: as §2

[9] = system: surinam grass (Brachiaria decumbens); experiment: Test C pre-/postemergence: surinam grass
In short: as §2

[10] = system: woolly cupgrass (Eriochloa villosa); experiment: Test C pre-/postemergence: woolly cupgrass
In short: as §2

[11] = system: windgrass (Apera spica-venti); experiment: Test C postemergence: windgrass
In short: as §1

[12] = 31 g ai/ha, scale 0 to 100 (0 no effect, 100 complete control)
[13] = 62 g ai/ha, scale 0 to 100 (0 no effect, 100 complete control)
[14] = 125 g ai/ha, scale 0 to 100, 0 no effect, 100 complete control
[15] = Postemergence, 31 g ai/ha, scale 0 to 100 (0 no effect, 100 complete control)
[16] = Postemergence, 62 g ai/ha, scale 0 to 100 (0 no effect, 100 complete control)
[17] = Postemergence, 125 g ai/ha, scale 0 to 100, 0 no effect, 100 complete control
[18] = Postemergence, 250 g ai/ha, scale 0 to 100
[19] = Preemergence, 31 g ai/ha, scale of 0 to 100, 0 is no effect, 100 is complete control
[20] = Preemergence, 62 g ai/ha, scale 0 to 100, 0 no effect, 100 complete control
[21] = Preemergence, 125 g ai/ha, scale 0 to 100, 0 no effect, 100 complete control
[22] = Preemergence, 250 g ai/ha, scale 0 to 100, 0 no effect, 100 complete control
[23] = Preemergence, 62 g ai/ha, scale of 0 to 100, 0 is no effect, 100 is complete control
[24] = 31 g ai/ha, scale of 0 to 100, 0 is no effect, 100 is complete control
[25] = 62 g ai/ha, scale of 0 to 100, 0 is no effect, 100 is complete control
[26] = 250 g ai/ha, scale 0 to 100, 0 no effect, 100 complete control

Question: What does the source list for `Cc1nn(-c2ccc(C(F)(F)F)cn2)nc1Cc1cccc(C(F)(F)F)c1` [Compound 106]?
Answer: Plant response rating, Deadnettle [1, 12]: 75; Plant response rating, Deadnettle [1, 13]: 80; Plant response rating, Deadnettle [1, 14]: 90; Plant response rating, Deadnettle ([1]; 250 g ai/ha, scale 0 to 100): 90; Plant response rating, Bromegrass, Downy [2, 15]: 30; Plant response rating, Bromegrass, Downy [2, 16]: 35; Plant response rating, Bromegrass, Downy [2, 17]: 40; Plant response rating, Bromegrass, Downy [2, 18]: 40; Plant response rating, Bromegrass, Downy [2, 19]: 0; Plant response rating, Bromegrass, Downy [2, 20]: 5; Plant response rating, Bromegrass, Downy [2, 21]: 40; Plant response rating, Bromegrass, Downy [2, 22]: 60; Plant response rating, Goosegrass [3, 15]: 10; Plant response rating, Goosegrass [3, 16]: 35; Plant response rating, Goosegrass [3, 17]: 45; Plant response rating, Goosegrass [3, 18]: 55; Plant response rating, Goosegrass [3, 19]: 80; Plant response rating, Goosegrass [3, 23]: 98; Plant response rating, Goosegrass [3, 21]: 98; Plant response rating, Goosegrass [3, 22]: 100; Plant response rating, Canarygrass [4, 12]: 35; Plant response rating, Canarygrass [4, 13]: 50; Plant response rating, Canarygrass [4, 14]: 70; Plant response rating, Canarygrass ([4]; 250 g ai/ha, scale 0 to 100): 80; Plant response rating, Foxtail, Green [5, 15]: 50; Plant response rating, Foxtail, Green [5, 16]: 50; Plant response rating, Foxtail, Green [5, 17]: 70; Plant response rating, Foxtail, Green [5, 18]: 85; Plant response rating, Foxtail, Green [5, 19]: 90; Plant response rating, Foxtail, Green [5, 23]: 95; Plant response rating, Foxtail, Green [5, 21]: 95; Plant response rating, Foxtail, Green [5, 22]: 95; Plant response rating, Nightshade [6, 24]: 0; Plant response rating, Nightshade [6, 25]: 75; Plant response rating, Nightshade [6, 14]: 90; Plant response rating, Nightshade [6, 26]: 100; Plant response rating, Bermudagrass [7, 15]: 40; Plant response rating, Bermudagrass [7, 16]: 40; Plant response rating, Bermudagrass [7, 17]: 55; Plant response rating, Bermudagrass [7, 18]: 80; Plant response rating, Bermudagrass [7, 19]: 100; Plant response rating, Bermudagrass [7, 20]: 100; Plant response rating, Bermudagrass [7, 21]: 100; Plant response rating, Bermudagrass [7, 22]: 100; Plant response rating, Sunflower [8, 25]: 0; Plant response rating, Sunflower [8, 14]: 0; Plant response rating, Sunflower [8, 26]: 0; Plant response rating, Surinam Grass [9, 15]: 20; Plant response rating, Surinam Grass [9, 16]: 25; Plant response rating, Surinam Grass [9, 17]: 35; Plant response rating, Surinam Grass [9, 18]: 40; Plant response rating, Surinam Grass [9, 19]: 5; Plant response rating, Surinam Grass [9, 23]: 20; Plant response rating, Surinam Grass [9, 21]: 80; Plant response rating, Surinam Grass [9, 22]: 90; Plant response rating, Cupgrass, Woolly [10, 15]: 5; Plant response rating, Cupgrass, Woolly [10, 16]: 45; Plant response rating, Cupgrass, Woolly [10, 17]: 45; Plant response rating, Cupgrass, Woolly [10, 18]: 50; Plant response rating, Cupgrass, Woolly [10, 19]: 5; Plant response rating, Cupgrass, Woolly [10, 23]: 60; Plant response rating, Cupgrass, Woolly [10, 21]: 80; Plant response rating, Cupgrass, Woolly [10, 22]: 90; Plant response rating, Windgrass [11, 12]: 50; Plant response rating, Windgrass [11, 13]: 65; Plant response rating, Windgrass [11, 14]: 80; Plant response rating, Windgrass ([11]; 250 g ai/ha, scale 0 to 100): 85

Question: What does the source list for `Cc1nn(-c2ccc(C(F)(F)F)cc2)nc1Oc1ccnc(C(F)(F)F)c1` [Compound 120]?
Answer: Plant response rating, Deadnettle [1, 12]: 100; Plant response rating, Deadnettle [1, 13]: 100; Plant response rating, Deadnettle [1, 14]: 100; Plant response rating, Deadnettle ([1]; 250 g ai/ha, scale 0 to 100): 100; Plant response rating, Bromegrass, Downy [2, 15]: 15; Plant response rating, Bromegrass, Downy [2, 16]: 15; Plant response rating, Bromegrass, Downy [2, 17]: 30; Plant response rating, Bromegrass, Downy [2, 19]: 45; Plant response rating, Bromegrass, Downy [2, 20]: 85; Plant response rating, Bromegrass, Downy [2, 21]: 90; Plant response rating, Bromegrass, Downy [2, 22]: 90; Plant response rating, Goosegrass [3, 15]: 5; Plant response rating, Goosegrass [3, 16]: 5; Plant response rating, Goosegrass [3, 17]: 10; Plant response rating, Goosegrass [3, 18]: 45; Plant response rating, Goosegrass [3, 19]: 98; Plant response rating, Goosegrass [3, 23]: 98; Plant response rating, Goosegrass [3, 21]: 98; Plant response rating, Goosegrass [3, 22]: 98; Plant response rating, Canarygrass [4, 12]: 25; Plant response rating, Canarygrass [4, 13]: 35; Plant response rating, Canarygrass [4, 14]: 60; Plant response rating, Canarygrass ([4]; 250 g ai/ha, scale 0 to 100): 90; Plant response rating, Foxtail, Green [5, 15]: 15; Plant response rating, Foxtail, Green [5, 16]: 85; Plant response rating, Foxtail, Green [5, 17]: 100; Plant response rating, Foxtail, Green [5, 18]: 100; Plant response rating, Foxtail, Green [5, 19]: 90; Plant response rating, Foxtail, Green [5, 23]: 90; Plant response rating, Foxtail, Green [5, 21]: 90; Plant response rating, Foxtail, Green [5, 22]: 90; Plant response rating, Nightshade [6, 24]: 95; Plant response rating, Nightshade [6, 25]: 95; Plant response rating, Nightshade [6, 14]: 95; Plant response rating, Nightshade [6, 26]: 95; Plant response rating, Bermudagrass [7, 15]: 5; Plant response rating, Bermudagrass [7, 16]: 5; Plant response rating, Bermudagrass [7, 17]: 5; Plant response rating, Bermudagrass [7, 18]: 10; Plant response rating, Bermudagrass [7, 19]: 98; Plant response rating, Bermudagrass [7, 20]: 98; Plant response rating, Bermudagrass [7, 21]: 98; Plant response rating, Bermudagrass [7, 22]: 100; Plant response rating, Sunflower [8, 24]: 0; Plant response rating, Sunflower [8, 25]: 0; Plant response rating, Sunflower [8, 14]: 0; Plant response rating, Sunflower [8, 26]: 5; Plant response rating, Surinam Grass [9, 15]: 5; Plant response rating, Surinam Grass [9, 16]: 5; Plant response rating, Surinam Grass [9, 17]: 20; Plant response rating, Surinam Grass [9, 18]: 20; Plant response rating, Surinam Grass [9, 19]: 65; Plant response rating, Surinam Grass [9, 23]: 95; Plant response rating, Surinam Grass [9, 21]: 98; Plant response rating, Surinam Grass [9, 22]: 100; Plant response rating, Cupgrass, Woolly [10, 15]: 10; Plant response rating, Cupgrass, Woolly [10, 16]: 10; Plant response rating, Cupgrass, Woolly [10, 17]: 40; Plant response rating, Cupgrass, Woolly [10, 18]: 45; Plant response rating, Cupgrass, Woolly [10, 19]: 90; Plant response rating, Cupgrass, Woolly [10, 23]: 95; Plant response rating, Cupgrass, Woolly [10, 21]: 98; Plant response rating, Cupgrass, Woolly [10, 22]: 98; Plant response rating, Windgrass [11, 12]: 50; Plant response rating, Windgrass [11, 13]: 55; Plant response rating, Windgrass [11, 14]: 90
